Results from publication PMC12668304, “A Triple Threat Against Ovarian Cancer: Os(II)‐Pt(IV)‐Ceritinib Conjugates for Photodynamic Therapy, Chemotherapy, and Immunogenic Cell Death Induction” (Angewandte Chemie (International Ed. in English), 2025).
Like-named read-outs stand apart in the source and are kept apart here.

Experiments:
[1] = test system: A549 cells; experiment: (Photo-)cytotoxicity on 2D cell monolayers, resazurin assay; format: cell-based; conditions: for IC50: A549, normoxic, 4 h exposure
Protocol: The 2D cytotoxicity and phototoxicity profiles of Os‐Pt‐Cer and controls, were evaluated in a panel of cancerous cell lines, including A2780 (ovarian carcinoma), A549 (non‐small cell lung carcinoma), and MCA205 (murine fibrosarcoma), as well as a non‐cancerous retinal pigment epithelial cell line (RPE‐1). Cells were treated with the compounds (0.003–100 µM) for 4 h, either kept in the dark or irradiated at 670 nm (13.5 J cm^− ^2) (Table S4 and Figure S22) or 740 nm (12.6 J cm^− ^2) and viability was assessed 44 h post‐treatment. To verify robustness, the incubation was extended to 72 h. […]
Human ovarian cancer (A2780) cells and mouse fibrosarcoma cells (MCA205) were cultured in RPMI media. Retinal pigment epithelium (RPE -1) cells were cultured in DMEM/F -12 medium. Lung cancer cells (A549) were cultured in F -12K medium. These cell lines were complemented with 10% of fetal bovine serum, 100 U/mL penicillin -streptomycin mixture, and maintained in a humidified atmosphere […]
(Photo-)cytotoxicity on 2D cell monolayers
The cytotoxicity of the compounds was assessed by measuring cell viability using a resazurin assay.
The cells were seeded in triplicates in 96 well plates with a density of 10 4 cells per well in 100 μL of media. After 24 h, the medium was removed, and the cells were treated with increasing concentrations (0.003 → 100 µM) of the compounds diluted in cell media , achieving a total volume of 100 μL/well.
The cells were incubated with the compound for 4 h (final incubation time 48 h) or 24 h (final incubation time 72 h). After this time, the media was removed and replaced with 100 μL of fresh medium. For the phototoxicity studies, the cells were exposed to light with an Atlas Photonics LUMOS BIO irradiation system. Each well was constantly irradiated at 670 nm (60 min, 13.50 J·cm-2) or 740 nm (60 min, 12.60 J·cm-2). During the irradiation, the temperature of the plate was maintained at 37 °C. The cells were grown in the incubator for an additional 44 or 48 h, respectively. For the determination of the dark cytotoxicity, the cells were not irradiated and after the medium exchange directly incubated for 44 h.
After this time, the medium was replaced with fresh medium containing resazurin (0.2 mg/mL). After […]
4 h of incubation, the conversion of resazurin into resorufin was determined upon excitation at 540 nm and measurement of its emission at 590 nm using a Cytation 5 Imaging Reader from BioTek. The obtained data was analysed with the GraphPad Prism software […]
After 24 h of incubation at 37 °C, 5% CO 2, plates were read using a SpectraMaxM2 Microplate Reader ( λexc = 540 nm; λread = 590 nm). Fluorescence data were normalised, and data were fitted using GraphPad Prism Software, and IC 50 was calculated by non - linear regression. Changes in the size and shape of MCTS were monitored every 24 h using Cytation 5 Imaging Reader from BioTek, objective x4.
Intracellular distribution by confocal fluorescence microscopy
10^4 cells/well (A2780 cells) were seeded in complete medium (RPMI) in µ -slide 8 well (Ibidi) (100 µl/well) and left for 24 h to attach to the bottom. Then, the culture medium was removed , and 100 µl of solution of the corresponding complexes (5 µM) was added. The complexes were incubated with the cells for 4 hours. Thereafter, the medium was removed and replaced by RPMI without phenol red , and Hoechst and MitoTracker Green were added at a final concentration of 1 µg/mL. They were incubated with the cells for 30 min in the dark at 37 °C. Images were collected in a sequential mode in a Leica TCS SP8 confocal microscope with a 60x oil immers ion objective, a line average of 4, and a format of […]
(MTG)→ 500 -550nm, and 488 nm (complexes)→ 680 -730 nm. The confocal pinhole was 1 Airy unit.
Images were analysed with LAS X Flim FCS software.
Intracellular distribution by ICP -MS

[2] = test system: A2780 MCTSs; experiment: (Photo-)cytotoxicity on 3D multicellular tumour spheroids, resazurin assay; format: cell-based, human; conditions: for IC50: normoxic, one week of incubation
Protocol: A2780 spheroids (ca. 500 µm in diameter) were treated with increasing concentrations of the compounds and after 24 h of incubation, the medium was replaced with fresh medium, and the cells were either kept in the dark or irradiated for 1 h at 740 nm. Images of the spheroids were taken every 24 h for 3 days.
Additionally, the phototoxicity was tested via a fluorometric resazurin assay in A2780 MCTSs (Table 3). […] (Figure S29). […] This can be attributed to the different biological endpoints and time frames of the assays: spheroid diameter was monitored over 72 h, whereas resazurin measurements were performed after 7 days, potentially capturing delayed cytotoxic effects due to differences in drug cellular uptake.
4 h of incubation, the conversion of resazurin into resorufin was determined upon excitation at 540 nm and measurement of its emission at 590 nm using a Cytation 5 Imaging Reader from BioTek. The obtained data was analysed with the GraphPad Prism software
MCTS were cultured using ultra-low attachment 96 wells plates from Corning (Fisher Scientific 15329740). A2780 cells were seeded at a density of 1,500 cells per well in 100 μL of RPMI. Within 2-3 days, MCTSs have approximately 500 μm of diameter. The formation as well as integrity and diameter of the MCTSs were monitored by microscopy.
(Photo-)cytotoxicity on 3D multicellular tumor spheroids (MCTS)
After 2 days of growing at 37 °C in 5% CO2, the medium was removed, and MCTSs were treated by adding 100 μL of the medium in the well with increasing concentrations of compounds (Os-Pt-Cer, Os, Ceritinib, Oxaliplatin, cisplatin, and Ce6 as additional control). For untreated reference MCTSs, only half of the medium was added with fresh medium. After 24 hours, the MCTSs were divided into two identical groups. The first group was strictly kept in the dark. The second group was irradiated at 740 nm for 1 h (12.60 J·cm-2) using a LUMOS-BIO photoreactor (Atlas Photonics). After the irradiation, all groups were incubated additional 7 days. Thereafter, medium was replaced with 100 μL of fresh medium containing resazurin (0.2 mg/mL). After 24 h of incubation at 37 °C, 5% CO 2, plates were read using a SpectraMaxM2 Microplate Reader ( λexc = 540 nm; λread = 590 nm). Fluorescence data were normalised, and data were fitted using GraphPad Prism Software, and IC 50 was calculated by non - linear regression. Changes in the size and shape of MCTS were monitored every 24 h using Cytation 5 Imaging Reader from BioTek, objective x4. […]
Figure S29. Cell viability graphs after one week of incubation. Studied compounds were incubated for 24 h, thereafter the medium was renovated. For PDT, plates were irradiated at 740 nm for 1h using a LUMOS-BIO photoreactor (Atlas Photonics). For both PDT and regular cytotoxicity, cells were incubated for one week at 37 °C, 5 % CO2. The medium was renovated each two days. Then, the medium was replaced with 100 µL of fresh medium containing 0.2 mg/mL resazurin (Acros Organics). After 24 h of incubation, the fluorescence signal of the resazurin product was recorded (λexc = 540 nm; λem = 590 nm) using a Cytation 5 Cell Imaging Multi-Mode Reader (Biotek - Agilent).
(1 picture or pasted object on this page, not shown here)

[3] = Homo sapiens, dark, total 48 h incubation, read-out: IC50 Dark
[4] = Homo sapiens, 168 h, dark, read-out: IC50 Dark

Row | Structure (SMILES) | PI (IC50 dark/IC50 irradiation 740 nm) ([1]; A549) | IC50 ([1]; Homo sapiens, 740 nm (60 min, 12.60 J·cm^−2), total 48 h, read-out: IC50 Irrad. 740 nm) [µM] | IC50 [1, 3] [µM] | PI [2] | IC50 [2, 4] [µM] | IC50 ([2]; Homo sapiens, 740 nm (60 min, 12.60 J·cm^−2), read-out: IC50 Irrad. 740 nm) [µM] | IC50 ([1]; dark, total 48 h incubation, read-out: IC50 Dark) [µM] | IC50 ([2]; dark, read-out: IC50 Dark) [µM]
1 | C=Cc1c(C)c2cc3nc(c(CC(=O)O)c4[nH]c(cc5nc(cc1[nH]2)C(C)=C5CC)c(C)c4C(=O)O)[C@@H](CCC(=O)O)[C@@H]3C [Ce6, Chlorin e6] | ≥17 | 5.86 ± 0.82 | > 100 | ≥7 | > 5 | 0.7 ± 0.4 | – | –
2 | Cc1cc(Nc2ncc(Cl)c(Nc3ccccc3S(=O)(=O)C(C)C)n2)c(OC(C)C)cc1C1CCNCC1 [Ceritinib] | – | – | 3.8 ± 0.09 | – | > 5 | – | – | –
3 | O=C1[O][Pt]2([NH][C@@H]3CCCC[C@H]3[NH]2)[O]C1=O [Oxaliplatin] | – | – | – | – | – | – | 2.8 ± 0.13 | 0.5 ± 0.7
